Data published in PMC5614982, “Impact of Gastric H^+/K^+-ATPase rs2733743 on the Intragastric pH-Values of Dexlansoprazole Injection in Chinese Subjects” (Frontiers in Pharmacology, 2017).
Several values for one entry are separate records, joined by “and”; a condition that tells them apart may be missing. Equal entries are not always repeated.

System: intragastric pH
Assay: 24-h intragastric pH monitoring after single intravenous dexlansoprazole in healthy Chinese subjects
Assay type: in vivo, human
Procedure: Dexlansoprazole injection (30 mg per vial) used in the PK and PD study was manufactured by Nanjing Yoko Pharma Co., Ltd. (Nanjing, China). Subjects received an intravenous infusion of 20 or 30 mg dexlansoprazole injection in sterile saline solution (100 mL/h, 60 min). The study drug was administrated with an infusing pump (SA213, Lifepum, Beijing, China) and given through an intravenous catheter in the antecubital vein opposite to the one from which blood samples were taken.
An ambulatory pH recorder (Orion II, MMS, USA) with a disposable pH catheter (VersaFlex, MMS, USA) was used to monitor intragastric pH. The electrode was placed in water for at least 10 min and then calibrated using standard buffer solutions (pH 1.07 and 7.01) before intubation. Both calibration and intubation processes were conducted under the guidance of MMS Virtual Instructor Program. The catheter, trans nasally placed 10 cm under the lower esophageal sphincter, was identified by a sharp decrease in pH (Wang et al., [2010], [2011]). Subjects were intubated on baseline and the day of dosing at about 7:30 a.m., and the intragastric pH data were recorded continuously for 24 h from 8:00 a.m. Intragastric pH was sampled every second, and the data were stored in a MMS Database program (MMS, USA). The PD parameters including Median (pH), Mean (pH), TpH≥3 (%), TpH≥4 (%), TpH≥6 (%), TpH≥6, and AUC^pH−t were analyzed by the MMS Database program.
Median (pH) and mean (pH) were well-investigated in most studies, and the percentage time of pH ≥ 4 (or pH ≥ 4 holding time ratio) was the benchmark for predicting clinical efficacy of PPIs in treating acid-related diseases (Metz et al., [2009]). Novel parameter TpH≥6 (time to first gastric pH ≥ 6, min) and AUCτ 1-τ 2pH-t (area under pH-time curve from τ1 to τ2, pH·s) were defined to evaluate the velocity and extent of pharmacodynamics with more accuracy. All parameters were calculated and compared according to time periods of 0–24, 0–4, 4–10, 10–14, and 14–24 h post dosing.
The parameter AUCτ 1-τ 2pH-t was calculated as follows:
Where t represented the time duration measured by seconds, AUCτ 1-τ 210-t was the area between the pH line = 10 and the pH-time curve, which was generated by the MMS software.
Baseline-adjusted PD parameters were calculated as follows: for example, ΔAUC^pH−t = AUC^pH−t − AUC^pH−tbaseline, ΔMean (pH) = Mean (pH) − Mean (pH)^baseline, and ΔMedian (pH) = Median (pH) − Median (pH)^baseline.

Compound: Cc1c(OCC(F)(F)F)ccnc1C[S@@+]([O-])c1nc2ccccc2[nH]1 [dexlansoprazole]
- time to first gastric pH ≥ 6 (TpH≥6) (20 mg group): 76 (± 29) min and 76 ± 29 min
- Mean (pH) (20 mg iv, 0–4 h): 4.3 ± 1.5 pH
- Median (pH) (20 mg iv, 0–4 h): 4.6 ± 2.1 pH
- TpH≥3(%) (20 mg iv, 0–4 h): 57.5 ± 22.1 %
- TpH≥4(%) (20 mg iv, 0–4 h): 46.5 ± 26.3 %
- TpH≥6(%) (20 mg iv, 0–4 h): 33.2 ± 29.4 %
- ΔMean (pH) (20 mg iv, 0–4 h): 2.1 ± 1.1 pH
- ΔMedian (pH) (20 mg iv, 0–4 h): 2.5 ± 1.9 pH
- ΔTpH≥3(%) (20 mg iv, 0–4 h): 47.1 ± 20.6%
- ΔTpH≥4 (%) (20 mg iv, 0–4 h): 39.0 ± 22.3 %
- ΔTpH≥6(%) (20 mg iv, 0–4 h): 27.6 ± 24.2 %
- Mean (pH) (20 mg iv, 0–24 h): 4.9 ± 1.2 pH
- Median (pH) (20 mg iv, 0–24 h): 4.9 ± 1.5 pH
- TpH≥3(%) (20 mg iv, 0–24 h): 68.5 ± 20.9 %
- TpH≥4(%) (20 mg iv, 0–24 h): 60.4 ± 22.2 %
- TpH≥6(%) (20 mg iv, 0–24 h): 40.1 ± 21.3 %
- ΔMean (pH) (20 mg iv, 0–24 h): 2.4 ± 1.0 pH
- ΔMedian (pH) (20 mg iv, 0–24 h): 3.1 ± 1.5 pH
- ΔTpH≥3(%) (20 mg iv, 0–24 h): 44.5 ± 19.0 %
- ΔTpH≥4 (%) (20 mg iv, 0–24 h): 45.0 ± 20.7 %
- ΔTpH≥6(%) (20 mg iv, 0–24 h): 33.7 ± 18.8 %
- Mean (pH) (20 mg iv, 4–10 h): 6.2 ± 1.4 pH
- Median (pH) (20 mg iv, 4–10 h): 6.3 ± 1.6 pH
- TpH≥3(%) (20 mg iv, 4–10 h): 89.4 ± 23.1%
- TpH≥4(%) (20 mg iv, 4–10 h): 89.0 ± 22.1%
- TpH≥6(%) (20 mg iv, 4–10 h): 64.1 ± 31.0 %
- ΔMean (pH) (20 mg iv, 4–10 h): 3.3 ± 1.4 pH
- ΔMedian (pH) (20 mg iv, 4–10 h): 3.6 ± 1.7 pH
- ΔTpH≥3(%) (20 mg iv, 4–10 h): 51.8 ± 29.6%
- ΔTpH≥4 (%) (20 mg iv, 4–10 h): 65.8 ± 26.9%
- ΔTpH≥6(%) (20 mg iv, 4–10 h): 54.9 ± 32.2 %
- Mean (pH) (20 mg iv, 10–14 h): 6.5 ± 1.6 pH
- Median (pH) (20 mg iv, 10–14 h): 6.6 ± 1.6 pH
- TpH≥3(%) (20 mg iv, 10–14 h): 92.7 ± 18.1%
- TpH≥4(%) (20 mg iv, 10–14 h): 88.4 ± 22.7%
- TpH≥6(%) (20 mg iv, 10–14 h): 70.9 ± 35.5%
- ΔMean (pH) (20 mg iv, 10–14 h): 3.3 ± 1.4 pH
- ΔMedian (pH) (20 mg iv, 10–14 h): 3.7 ± 1.5 pH
- ΔTpH≥3(%) (20 mg iv, 10–14 h): 43.8 ± 25.3%
- ΔTpH≥4 (%) (20 mg iv, 10–14 h): 55.5 ± 26.0%
- ΔTpH≥6(%) (20 mg iv, 10–14 h): 63.7 ± 34.3%
- Mean (pH) (20 mg iv, 14–24 h): 3.6 ± 1.3 pH
- Median (pH) (20 mg iv, 14–24 h): 3.2 ± 1.4 pH
- TpH≥3(%) (20 mg iv, 14–24 h): 48.7 ± 30.8 %
- TpH≥4(%) (20 mg iv, 14–24 h): 37.6 ± 31.3 %
- TpH≥6(%) (20 mg iv, 14–24 h): 16.3 ± 19.3 %
- ΔMean (pH) (20 mg iv, 14–24 h): 1.6 ± 1.1 pH
- ΔMedian (pH) (20 mg iv, 14–24 h): 1.5 ± 1.3 pH
- ΔTpH≥3(%) (20 mg iv, 14–24 h): 38.8 ± 27.8 %
- ΔTpH≥4 (%) (20 mg iv, 14–24 h): 31.2 ± 28.2 %
- ΔTpH≥6(%) (20 mg iv, 14–24 h): 12.0 ± 14.0 %
- time to first gastric pH ≥ 6 (TpH≥6) (30 mg group): 58 (± 25) min and 58 ± 25 min
- Mean (pH) (30 mg iv, 0–4 h): 5.5 ± 1.5 pH
- Median (pH) (30 mg iv, 0–4 h): 6.1 ± 2.0 pH
- TpH≥3(%) (30 mg iv, 0–4 h): 72.3 ± 20.8%
- TpH≥4(%) (30 mg iv, 0–4 h): 66.5 ± 23.4%
- TpH≥6(%) (30 mg iv, 0–4 h): 54.6 ± 29.2%
- ΔMean (pH) (30 mg iv, 0–4 h): 3.3 ± 1.1 pH
- ΔMedian (pH) (30 mg iv, 0–4 h): 4.1 ± 1.9 pH
- ΔTpH≥3(%) (30 mg iv, 0–4 h): 57.5 ± 22.2%
- ΔTpH≥4 (%) (30 mg iv, 0–4 h): 56.6 ± 19.6%
- ΔTpH≥6(%) (30 mg iv, 0–4 h): 50.7 ± 26.1%
- Mean (pH) (30 mg iv, 0–24 h): 6.1 ± 1.2 pH
- Median (pH) (30 mg iv, 0–24 h): 6.4 ± 1.4 pH
- TpH≥3(%) (30 mg iv, 0–24 h): 85.1 ± 15.7%
- TpH≥4(%) (30 mg iv, 0–24 h): 79.8 ± 19.0%
- TpH≥6(%) (30 mg iv, 0–24 h): 64.2 ± 21.0%
- ΔMean (pH) (30 mg iv, 0–24 h): 3.4 ± 1.1 pH
- ΔMedian (pH) (30 mg iv, 0–24 h): 4.3 ± 1.3 pH
- ΔTpH≥3(%) (30 mg iv, 0–24 h): 58.6 ± 18.5%
- ΔTpH≥4 (%) (30 mg iv, 0–24 h): 62.8 ± 20.3%
- ΔTpH≥6(%) (30 mg iv, 0–24 h): 56.6 ± 18.8%
- Mean (pH) (30 mg iv, 4–10 h): 6.9 ± 1.0 pH
- Median (pH) (30 mg iv, 4–10 h): 7.1 ± 0.9 pH
- TpH≥3(%) (30 mg iv, 4–10 h): 96.8 ± 7.6%
- TpH≥4(%) (30 mg iv, 4–10 h): 94.5 ± 11.9%
- TpH≥6(%) (30 mg iv, 4–10 h): 83.2 ± 22.3%
- ΔMean (pH) (30 mg iv, 4–10 h): 4.2 ± 1.2 pH
- ΔMedian (pH) (30 mg iv, 4–10 h): 4.6 ± 1.2 pH
- ΔTpH≥3(%) (30 mg iv, 4–10 h): 60.4 ± 21.3%
- ΔTpH≥4 (%) (30 mg iv, 4–10 h): 75.7 ± 19.2%
- ΔTpH≥6(%) (30 mg iv, 4–10 h): 80.3 ± 22.3%
- Mean (pH) (30 mg iv, 10–14 h): 7.2 ± 1.2 pH
- Median (pH) (30 mg iv, 10–14 h): 7.3 ± 1.3 pH
- TpH≥3(%) (30 mg iv, 10–14 h): 96.8 ± 9.5%
- TpH≥4(%) (30 mg iv, 10–14 h): 95.0 ± 12.9%
- TpH≥6(%) (30 mg iv, 10–14 h): 84.5 ± 24.3%
- ΔMean (pH) (30 mg iv, 10–14 h): 4.2 ± 1.5 pH
- ΔMedian (pH) (30 mg iv, 10–14 h): 4.5 ± 1.7 pH
- ΔTpH≥3(%) (30 mg iv, 10–14 h): 54.1 ± 28.5%
- ΔTpH≥4 (%) (30 mg iv, 10–14 h): 70.6 ± 26.4%
- ΔTpH≥6(%) (30 mg iv, 10–14 h): 82.1 ± 23.6%
- Mean (pH) (30 mg iv, 14–24 h): 5.5 ± 1.5 pH
- Median (pH) (30 mg iv, 14–24 h): 5.3 ± 1.9 pH
- TpH≥3(%) (30 mg iv, 14–24 h): 78.9 ± 27.7%
- TpH≥4(%) (30 mg iv, 14–24 h): 70.6 ± 31.1%
